Measured values as given in PMC12186255, “Discovery and Characterization of Small Molecule Inhibitors Targeting Exonuclease 1 for Homologous Recombination-Deficient Cancer Therapy” (ACS Chemical Biology, 2025).

Tests used:
FEN1 = molecular target: T1, FEN1 (Homo sapiens, UniProt P39748); experiment: Analogous FRET-based counter screen with purified FEN1; assay type: biochemical; conditions: FRET-based assay, maximum inhibitor concentration 100 μM
T1 construct: made in house
Protocol: Data were normalized by subtracting the relative fluorescence unit (RFU) of the blank sample from that of each EXO1-containing reaction. The relative activity of individual compounds was subsequently calculated by setting the corrected RFU of EXO1 with DMSO as 100% and comparing the corrected RFU for each condition to the DMSO value. Each assay was performed by sequentially adding experimental compounds, the EXO1 enzyme, and the DNA substrate to minimize starting differences. […] Following IC50 screening, an analogous FRET-based assay was performed using purified FEN1 to assess the EXO1 specificity of each compound.
For subsequent hit confirmation, 84 compounds from the primary screen were picked from our internal stock and subjected to a dose-dependent response assay starting at 100 μM with 3-fold serial dilution. To analyze the data from the dose-dependent response assay, IC50 values for each hit were calculated through nonlinear regression analysis using GraphPad Prism 10 (GraphPad Software, Inc.). […] Subsequently, a counter screen was performed to eliminate potential false-positive hits. To accomplish this, we established an analogous FRET assay using the purified FEN1 enzyme in place of EXO1.

MDA-MB-436 cells [1] = experiment: γ-H2AX immunofluorescence and Western blot (DSB burden); assay type: cell-based, human; conditions: MDA-MB-436 parental (BRCA1-deficient) cells, 10 or 50 μM, overnight/24 h
Protocol: (b) Quantification of the relative γ-H2AX per nucleus from panel a. […] The intensity of the γ-H2AX bands correlates with the level of DSBs observed in the immunofluorescence images in panel a. […] Strong γ-H2AX foci are observed, indicating an increased burden of DSBs. […] (e) Quantification of the relative γ-H2AX per nucleus is depicted in panel d. […] The intensity of the γ-H2AX bands correlates with the level of DSBs observed in the immunofluorescence images in panel d.
Cells were seeded at a density of 3× 10^5 cells per well in 12-well plates with preplaced coverslips and treated with or without various inhibitor treatments overnight. Cells were then incubated with EdU for 30 min before collection. For PARylation analysis, cells were permeabilized with 0.1% Triton X100, fixed with 4% paraformaldehyde, blocked with the Image-iT FX signal enhancer (Invitrogen), and incubated (1.5 h, RT) with the indicated primary antibodies (PAR/pADPr Antibody; Biotechne). […] The slides were then washed with the PBS buffer, counterstained with DAPI, and analyzed with a fluorescence microscope (Zeiss Observer Z1). […] The slides were then washed with the PBS buffer, incubated with the Click-iT reaction mix for EdU as aforementioned, counterstained with DAPI, and analyzed with a fluorescence microscope (Zeiss Observer Z1).

MDA-MB-436 cells [2] = experiment: S-phase PARylation immunofluorescence; assay type: cell-based, human; conditions: MDA-MB-436 BRCA1− and BRCA1+ cells, 10 or 50 μM overnight
Protocol: (b) Quantification of the relative PARylation per nucleus from panel a. […] Strong PARylation foci are observed in BRCA1– cells. […] (d) Quantification of the relative PARylation per nucleus from panel c.
Cells were seeded at a density of 3× 10^5 cells per well in 12-well plates with preplaced coverslips and treated with or without various inhibitor treatments overnight. Cells were then incubated with EdU for 30 min before collection. For PARylation analysis, cells were permeabilized with 0.1% Triton X100, fixed with 4% paraformaldehyde, blocked with the Image-iT FX signal enhancer (Invitrogen), and incubated (1.5 h, RT) with the indicated primary antibodies (PAR/pADPr Antibody; Biotechne). The cells were then washed with PBS buffer and incubated (1 h, RT) with the corresponding secondary antibodies (1:200, Invitrogen). Subsequently, the fixed cells were incubated with the Click-iT reaction mix (100 mM Tris-HCl pH 8.5, […], 1 mM CuSO4, and 100 mM ascorbic acid (Sigma-Aldrich)) for 1 h at RT. The slides were then washed with the PBS buffer, counterstained with DAPI, and analyzed with a fluorescence microscope (Zeiss Observer Z1). […] The slides were then washed with the PBS buffer, incubated with the Click-iT reaction mix for EdU as aforementioned, counterstained with DAPI, and analyzed with a fluorescence microscope (Zeiss Observer Z1).

[3] = test system: subset of the NCI-60 cell line panel plus FG, AsPC1, CaPan2 (31 cell lines); experiment: Tumor cell line drug profiling, CellTiter Glo, whole panel; assay type: cell-based; conditions: Homo sapiens, 72 h, read-out: IC50 values across the cell line panel
Protocol: (§1) We tested the cytotoxicity of representative compounds from the seven EXO1i scaffolds against a subset of the NCI-60 cell line panel along with three additional pancreatic cell lines (FG, AsPC1, and CaPan2). In general, cells were seeded in 384-well tissue culture-treated plates overnight and treated with various concentrations of each hit compound (a serial 3-fold dilution from 50 μM for all tested hits). Each concentration was performed in duplicate. Cell viability was then measured by CellTiter Glo (Promega) after 72 h of treatment.

ACHN = experiment: Cell line drug profiling, CellTiter Glo; assay type: cell-based; conditions: Homo sapiens, Kidney, 72 h
Protocol: as §1

AsPC1 = experiment: Cell line drug profiling, CellTiter Glo; assay type: cell-based; conditions: Homo sapiens; AsPC1, Pancreatic, 72 h
Protocol: as §1

BT549 = experiment: Cell line drug profiling, CellTiter Glo; assay type: cell-based; conditions: Homo sapiens, BT-549; BT549, Breast, 72 h
Protocol: as §1

CCRF-CEM = experiment: Cell line drug profiling, CellTiter Glo; assay type: cell-based; conditions: Homo sapiens, Leukemia, 72 h
Protocol: as §1

CaPan2 = experiment: Cell line drug profiling, CellTiter Glo; assay type: cell-based; conditions: Homo sapiens, Capan-2; CaPan2, Pancreatic, 72 h
Protocol: as §1

FG = experiment: Cell line drug profiling, CellTiter Glo; assay type: cell-based; conditions: Homo sapiens, Pancreatic, 72 h
Protocol: as §1

HL-60(TB) = experiment: Cell line drug profiling, CellTiter Glo; assay type: cell-based; conditions: Homo sapiens, Leukemia, 72 h
Protocol: as §1

HS 578T = experiment: Cell line drug profiling, CellTiter Glo; assay type: cell-based; conditions: Homo sapiens, Breast, 72 h
Protocol: as §1

MCF7 (B3) = experiment: Cell line drug profiling, CellTiter Glo; assay type: cell-based; conditions: Homo sapiens, Breast, 72 h
Protocol: as §1

MCF7 = experiment: Cell line drug profiling, CellTiter Glo; assay type: cell-based; conditions: Homo sapiens; MCF7, Breast, 72 h
Protocol: as §1

MDA-MB-231 = experiment: Cell line drug profiling, CellTiter Glo; assay type: cell-based; conditions: Homo sapiens; MDA-MB-231, Breast, 72 h
Protocol: as §1

OVCAR-3 = experiment: Cell line drug profiling, CellTiter Glo; assay type: cell-based; conditions: Homo sapiens; OVCAR-3, Ovarian, 72 h
Protocol: as §1

SF-268 = experiment: Cell line drug profiling, CellTiter Glo; assay type: cell-based; conditions: Homo sapiens; SF-268, Central Nervous System, 72 h
Protocol: as §1

SK-MEL-28 = experiment: Cell line drug profiling, CellTiter Glo; assay type: cell-based; conditions: Homo sapiens; SK-MEL-28, Melanoma, 72 h
Protocol: as §1

UO-31 = experiment: Cell line drug profiling, CellTiter Glo; assay type: cell-based; conditions: Homo sapiens; UO-31, Kidney, 72 h
Protocol: as §1

MDA-MB-468 = experiment: Cell line drug profiling, CellTiter Glo; assay type: cell-based, human; conditions: Homo sapiens, MDA-MB-468, 72 h
Protocol: as §1

T1 sequence (P39748 whole entry): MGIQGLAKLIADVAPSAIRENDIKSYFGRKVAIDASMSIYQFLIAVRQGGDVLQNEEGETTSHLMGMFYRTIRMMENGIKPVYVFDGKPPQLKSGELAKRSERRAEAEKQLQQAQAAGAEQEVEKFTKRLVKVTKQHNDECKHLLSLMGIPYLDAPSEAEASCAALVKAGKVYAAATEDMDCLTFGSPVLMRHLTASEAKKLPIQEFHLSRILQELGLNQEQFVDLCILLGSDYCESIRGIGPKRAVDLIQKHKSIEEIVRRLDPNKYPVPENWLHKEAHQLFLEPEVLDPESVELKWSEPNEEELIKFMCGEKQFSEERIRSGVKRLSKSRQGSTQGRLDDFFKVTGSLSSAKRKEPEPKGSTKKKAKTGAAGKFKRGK

| Structure (SMILES) | IC50 (FEN1) | γ-H2AX levels (unresolved DSBs) (MDA-MB-436 cells [1]) | S-phase PARylation (MDA-MB-436 cells [2]) | IC50 [3] | IC50 (ACHN) | IC50 (AsPC1) | IC50 (BT549) | IC50 (CCRF-CEM) | IC50 (CaPan2) | IC50 (FG) | IC50 (HL-60(TB)) | IC50 (HS 578T) | IC50 (MCF7 (B3)) | IC50 (MCF7) | IC50 (MDA-MB-231) | IC50 (OVCAR-3) | IC50 (SF-268) | IC50 (SK-MEL-28) | IC50 (UO-31) | IC50 (MDA-MB-468) |
| --- | --- | --- | --- | --- | --- | --- | --- | --- | --- | --- | --- | --- | --- | --- | --- | --- | --- | --- | --- | --- |
| COC(=O)c1nc(-c2ccc(OC)cc2)nc(O)c1O [C200] | > 100 µM | no effect | no effect | > 50 µM | > 50 µM | > 50 µM | > 50 µM | 27.4 µM | > 50 µM | > 50 µM | > 50 µM | > 50 µM | > 50 µM | > 50 µM | > 50 µM | > 50 µM | > 50 µM | > 50 µM | > 50 µM | > 50 µM |
| Cc1cccc(N2CCN(c3ccc(NS(=O)(=O)c4ccccc4)c(C(=O)O)c3)CC2)c1C [F684] | > 100 µM | significant increase | additive effect | 15 to 25 µM | 28.9 µM | > 50 µM | 12 µM | 14.6 µM | 48.1 µM | 27.5 µM | 20.1 µM | 18.2 µM | 23.6 µM | 20.1 µM | 28.6 µM | 10.9 µM | 38.6 µM | 38 µM | 20.6 µM | 23.6 µM |
